Test results taken from US20080057010A1, “METHOD FOR SKIN CARE” (NULIV SCIENCE LTD., priority 2006, published 2008).

Legend:
[1] = test system: HaCaT cells; experiment: Proline uptake assay in HaCaT cells; type: cell-based, human; settings: 0.1 μM; for Uptake rate (proline): 48 h treatment; for Percentage (%) of control proline uptake: control = 100.00
Protocol: The proline uptake assay was carried out as described (Biochim Biophys Acta. 1104:283-292, 1992). Briefly, HaCaT cells were seeded into a 24-well plate at a density of 3×10^4 cells/well and cultured for 24 h. The cells were then treated in the absence (solvent control) or presence of various concentrations of astragalosides or crude extracts from Astragalus membranaceus for another 48 h. The treated cells were then washed once with PBS and incubated in amino acid free medium (AAFM) for another 30 min. The treated cells were them replaced with fresh AAFM containing 50 μg/ml of ascorbate and total of 0.5 mM of L-proline containing 1 μCi [^3H] Proline (American Radiolabelled Chemicals Inc, ARC, St. Louis, Mo., USA). At designated time interval, the cells were washed with AAFM containing cold proline and then lysed in 200 μL of 2% SDS. Cell lysates were centrifuged at 15000 g for 15 min. Intracellular proline uptaken by the cells was determined by transferring 10 μL of the cell lysate to filter-bottomed UniFilter plates (Perkim-Elmer) and counted. Protein concentration of the samples were measured using the BCA protein assay kit as described above. Proline accumulated in the cells was calculated and normalized to protein concentration and uptake rate was expressed as nmole of L-proline per minute per milligram of cell protein ([…]).

[2] = test system: MMP-1; experiment: Quantitative analysis of MMP-1 transcripts in HDF cells (qRT-PCR); type: cell-based, human; settings: 0.1 μM, MMP-1 mRNA relative to 0 = 1.00
Protocol: Relative levels of MMP-1 expression in HDF cells were determined by qRT-PCR. Preparation of total RNA and cDNA were carried out as described in previous sections. qRT-PCR was performed using the Applied Biosystem 7300 system and pre-developed Taqman Gene Expression Assays (Applied Biosystems, Foster City, Calif., USA). The reaction was performed as described in previous sections except that primer mix for human MMP-1 (assay ID HS00233958_m1, Applied Biosystems) and GAPDH (assay ID Hs99999905_m1, Applied Biosystems) were used.
Results shown in Tables 6A and 6B represent the quantitated data from zymography analysis of MMP-2 protein in HaCaT cells and qRT-PCR for MMP-1 in HDF cells. The concentrations used were 0, 0.01. 0.1, 1 μM (if not indicated otherwise) for pure compounds; and were 0, 1, 10, 40 μg/mL for crude extract (if not indicated otherwise). The cells were treated with the indicated compounds for 24 h before harvested for analysis of Pro-MMP-2 or activated MMP-2 in whole cell extract. Fifty micrograms of the cell extract samples were used for electrophoresis.

[3] = test system: collagen III; experiment: Collagen III expression and secretion in human HDF cells (western blot); type: cell-based; settings: relative to 0 = 1.00
Protocol: Primary human dermal fibroblasts cells (HDF) were purchased from Cascade Biologics (Portland, Oreg., USA) and cultured in medium 106 supplemented with 10% fetal bovine serum (FBS), 100 IU/mL penicillin, 100 μg/mL of streptomycin. The cells from passages 4 to 10 were used for this study. Culture medium was replaced every other day. After confluence, the cells were subcultured following trypsinization. For subcultures cells were harvested after brief treatment with 0.1% trypsin/EDTA solution and seeded at a dilution of 1:10. The cells were seeded at 1×10^5 cells in 6-well culture plate for 24 h before treated with astragalosides or crude extracts, such as butanol fraction and water insoluble fraction of Astragalus membranaceus for the indicated time periods. Control cultures were maintained in medium supplemented with vehicle (dimethyl sulfoxide, DMSO, 0.1%). No growth and differentiation effects of DMSO were observed under these culture conditions.
The cells were treated with pure compounds such as astragaloside I (AS 1), astragaloside II (AS2), astragaloside III (AS3), astragaloside IV (AS4), astragaloside VI (AS6), isoastragaloside I (isoAS1), isoastragaloside II (isoAS2), and cycloastragenol 6-O-β-D-glucopyranose (AA) at concentrations of 0-10 μM. Alternatively, the cells were also treated with the crude extracts, such as butanol fraction and water insoluble fraction of Astragalus membranaceus at concentrations of 0, 1, 10, and 40 μg/mL. The cells were treated with the indicated compounds or the extracts for 24 h before harvested for analysis of collagen I and III expressed in the whole cell extract or secreted into the culture medium.
Western blot analysis was carried out on both of cultured medium and cell lysates. The cells were plated on 6-cm dishes at a density of 1×10^6 cells/dish for 24 h prior to treatment with indicated concentrations of astragalus triterpenoids as indicated for another 48 h. The conditioned culture mediums were then centrifuged, 2-fold concentrated and collected for assay of collagens and MMPs secreted into the culture medium. The cells were washed and lysed in 0.2 mL of lysis buffer (1% NP-40, 50 mM Tris-HCl, pH 7.4, 180 mM NaCl, 1 mM EDTA, 1 mM PMSF, 1 mM NaF, 10 mM Na3VO4) for 30 min at 4° C. After centrifuging at 17500 g for 15 min, the supernatants of cell lysate were also collected. Protein concentration of the samples were measured using the bicinchoninic acid (BCA) protein assay kit according to the manufacturer's protocol (Pierce, Rockford, Ill., USA). Equal amount of protein samples of concentrated conditioned medium (100 μg) or cell lysate supernatants (50 μg) were mixed with an appropriate volume of 4×SDS sampling buffer and separated by 8% SDS-PAGE gel. The protein bands separated in the SDS-PAGE gel were blotted onto a polyvinylidene fluoride (PVDF) membrane. The blotted PVDF membrane was washed twice and blocked in freshly prepared Tris-buffered saline (TBS) containing 0.1% Tween-20 and 7% skim milk (TBST) for 2 h at room temperature. The PVDF membrane was then incubated with either antibodies against collagen I and III or the housekeeping protein α-tubulin (Santa Cruz Biotechnology, Santa Cruz, Calif.) for 18 h at 4° C. Horseradish peroxidase-conjugated anti-goat antibody was used as secondary antibody. Signals were visualized by an enhanced chemiluminescence kit (Clonetech, Palo Alto, Calif., USA) followed by exposure to X-ray films.

Compound | Uptake rate (proline) [1] [pmol/mg/min] | Percentage (%) of control proline uptake [1] [%] | MMP-1 Q-PCR [2] | Collagen III in medium ([3]; 0.01 μM) | Collagen III in medium ([3]; 0.1 μM) | Collagen III in medium ([3]; 1 μM) | Collagen III in cell ([3]; 0.01 μM) | Collagen III in cell ([3]; 0.1 μM) | Collagen III in cell ([3]; 1 μM)
CC(=O)O[C@H]1[C@H](O[C@H]2CC[C@]34C[C@]35CC[C@]3(C)[C@@H]([C@@]6(C)CC[C@@H](C(C)(C)O)O6)[C@@H](O)C[C@@]3(C)[C@@H]5C[C@H](O[C@@H]3O[C@H](CO)[C@@H](O)[C@H](O)[C@H]3O)[C@H]4C2(C)C)OC[C@@H](O)[C@@H]1O [AS2, astragaloside II] | 0.9770 ± 0.1119 | 141.52 | 0.25 | 1.26 | 1.74 | 0.94 |  |  | 
CC(=O)O[C@H]1[C@H](O[C@H]2CC[C@]34C[C@]35CC[C@]3(C)[C@@H]([C@@]6(C)CC[C@@H](C(C)(C)O)O6)[C@@H](O)C[C@@]3(C)[C@@H]5C[C@H](O[C@@H]3O[C@H](CO)[C@@H](O)[C@H](O)[C@H]3O)[C@H]4C2(C)C)OC[C@@H](OC(C)=O)[C@@H]1O [isoAS1, isoastragaloside I] |  |  | 0.6 |  |  |  |  |  | 
CC(C)(O)[C@@H]1CC[C@](C)([C@H]2[C@@H](O)C[C@@]3(C)[C@@H]4C[C@H](O[C@@H]5O[C@H](CO)[C@@H](O)[C@H](O)[C@H]5O)[C@H]5C(C)(C)[C@@H](O[C@@H]6OC[C@@H](O)[C@H](O)[C@H]6O)CC[C@@]56C[C@@]46CC[C@]23C)O1 [AS4, astragaloside IV] | 0.7628 ± 0.1015 | 110.50 |  |  |  |  |  |  | 
astragaloside I [AS1] | 0.8627 ± 0.0741 | 124.97 | 0.75 | 1.38 | 1.19 | 1.77 | 1.16 | 1.08 | 1.18
CC(C)(O)[C@@H]1CC[C@](C)([C@H]2[C@@H](O)C[C@@]3(C)[C@@H]4C[C@H](O[C@@H]5O[C@H](CO)[C@@H](O)[C@H](O)[C@H]5O)[C@H]5C(C)(C)[C@@H](O[C@@H]6OC[C@@H](O)[C@H](O)[C@H]6O[C@@H]6O[C@H](CO)[C@@H](O)[C@H](O)[C@H]6O)CC[C@@]56C[C@@]46CC[C@]23C)O1 [AS6, astragaloside VI] |  |  |  |  |  |  | 1.65 | 1.37 | 0.95
CC(C)(O)[C@@H]1CC[C@](C)([C@H]2[C@@H](O)C[C@@]3(C)[C@@H]4C[C@H](O)[C@H]5C(C)(C)[C@@H](O[C@@H]6OC[C@@H](O)[C@H](O)[C@H]6O[C@@H]6O[C@H](CO)[C@@H](O)[C@H](O)[C@H]6O)CC[C@@]56C[C@@]46CC[C@]23C)O1 [AS3, astragaloside III] | 0.7213 ± 0.0090 | 104.48 |  | 2.18 | 1.79 | 1.51 |  |  | 
CC(=O)O[C@@H]1[C@@H](O)[C@H](O[C@H]2CC[C@]34C[C@]35CC[C@]3(C)[C@@H]([C@@]6(C)CC[C@@H](C(C)(C)O)O6)[C@@H](O)C[C@@]3(C)[C@@H]5C[C@H](O[C@@H]3O[C@H](CO)[C@@H](O)[C@H](O)[C@H]3O)[C@H]4C2(C)C)OC[C@H]1O [isoAS2, isoastragaloside II] |  |  | 0.71 | 1.00 | 1.07 | 1.18 |  |  | 
